Key:
[1] = tested on: colon carcinoma (Colo 205); assay: Methylene Blue Growth Inhibition Assay (Assay 2), Colo205; format: cell-based; details: Homo sapiens, Colorectal cancer, B-Raf V599E, Ras wt
[2] = tested on: Human diploid foreskin fibroblasts (HFF); assay: XTT 72 hr Growth Inhibition (Assay 3), HFF; format: cell-based; details: Fibroblast, normal, B-Raf wt, Ras wt
Experimental: (§1) XTT 72 hr Growth Inhibition Protocol for Mammalian Cultured Cells (Assay 3)
(§2) Human diploid foreskin fibroblasts (HFF) or human colon carcinoma (Colo 201) cells were grown in Dulbecco's modified Eagle's medium (DMEM) (Invitrogen/Life Technologies) containing 10% fetal bovine serum (FBS) and the antibiotics penicillin (100 Units/ml) and streotomycin (100 micrograms/ml) (Invitrogen/Life Technologies). Growth was at 37° C. in humidified 5% CO2 incubators in 75 cm^2 plastic flasks. Cells were harvested using 0.25% trypsin/1 mM ethylenediaminetetraacetic acid (EDTA), resuspended in growth medium, and counted using a hemocytometer. Flat-bottomed 96-well plates were seeded with 2×10^3 cells/well in a volume of 200 ul from trypsinized exponentially growing cultures. To “blank” wells, growth medium was added with no additions. Cells were incubated overnight to permit attachment.
(§3) Next day, medium from wells that contained cells was replaced with 180 microliters of fresh medium. Appropriate dilutions of test compounds were added to the wells from stock soloutions of compound dissolved in dimethyl sulfoxide (DMSO); final DMSO concentration in all wells was 0.2%. […] Absorbance at 450 nm was then determined using a 96-well UV plate reader (Molecular Devices). Under these conditions, absorbance of untreated control cells at 450 nm was at least 1.0 optical density unit/ml. […]

[3] = tested on: human colon carcinoma (Colo 201) cells; assay: XTT 72 hr Growth Inhibition (Assay 3), Colo201; format: cell-based; details: Colorectal cancer, B-Raf ND, Ras ND
Experimental: as §1, §2, §3

human melanoma SKMEL3 = assay: Methylene Blue Growth Inhibition Assay (Assay 2), SKMEL3; format: cell-based; details: SK-MEL3, B-Raf V599E, Ras wt
human melanoma A375P = assay: Methylene Blue Growth Inhibition Assay (Assay 2), A375P; format: cell-based; details: B-Raf V599E, Ras wt
B-Raf = B-Raf (Homo sapiens, UniProt P15056); assay: Fluorescence Anisotropy Kinase Binding Assay (Assay 1)
Sequence of B-Raf (P15056 whole entry): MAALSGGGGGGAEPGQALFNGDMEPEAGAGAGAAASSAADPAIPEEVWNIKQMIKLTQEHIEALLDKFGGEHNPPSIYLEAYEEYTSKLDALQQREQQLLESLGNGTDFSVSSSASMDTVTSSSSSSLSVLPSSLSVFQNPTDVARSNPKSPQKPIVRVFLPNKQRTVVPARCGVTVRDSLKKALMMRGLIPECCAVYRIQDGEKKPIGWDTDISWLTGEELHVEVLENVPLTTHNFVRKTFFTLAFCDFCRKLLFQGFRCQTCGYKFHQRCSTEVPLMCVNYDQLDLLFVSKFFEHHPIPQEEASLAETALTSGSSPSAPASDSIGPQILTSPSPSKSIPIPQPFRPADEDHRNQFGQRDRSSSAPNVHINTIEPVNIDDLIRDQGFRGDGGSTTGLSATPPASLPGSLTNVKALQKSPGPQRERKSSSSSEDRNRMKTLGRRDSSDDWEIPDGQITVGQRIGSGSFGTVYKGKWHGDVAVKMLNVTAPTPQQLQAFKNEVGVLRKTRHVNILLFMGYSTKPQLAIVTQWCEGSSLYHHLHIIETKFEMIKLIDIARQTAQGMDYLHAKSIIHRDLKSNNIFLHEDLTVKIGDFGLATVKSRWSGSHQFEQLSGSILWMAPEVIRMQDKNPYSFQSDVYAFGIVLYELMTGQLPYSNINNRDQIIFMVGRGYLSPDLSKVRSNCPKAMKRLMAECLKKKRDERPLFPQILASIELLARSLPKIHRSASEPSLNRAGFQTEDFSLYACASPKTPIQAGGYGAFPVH
Excerpt: Fluorescence Anisotropy Kinase Binding Assay
The concentration of kinase enzyme should preferably be ≧1×Kf. The concentration of fluorescent ligand required will depend on the instrumentation used, and the fluorescent and physicochemical properties. The concentration used must be lower than the concentration of kinase enzyme, and preferably less than half the kinase enzyme concentration. A typical protocol is:
All compounds are serially diluted in DMSO, then by a one step dilution into buffer of comparison, 50 mM HEPES, […] pH7.5, 1 mM CHAPS, 10 mM MgCL2, for the assay.
B-Raf Enzyme concentration: 1 nM
Fluorescent ligand concentration: 0.5 nM
Test compound concentration: 0.5 nM -100 uM
Components incubated in 10 ul final volume in LJL HE 384 type B black microtitre plate until equilibrium reached (Over 3 h, up to 30 h)
Fluorescence anisotropy read in an LJL Acquest.
• Ki=dissociation constant for inhibitor binding • Kf=dissociation constant for fluorescent ligand binding
The fluorescent ligand is the following compound:
which is derived from 5-[2-(4-aminomethylphenyl)-5-pyridin-4-yl]-1H-imidazol4-yl]-2-chlorophenol and rhodamine green.

human melanoma SKMEL2 = assay: Methylene Blue Growth Inhibition Assay (Assay 2), SKMEL2; format: cell-based; details: SK-MEL-2, B-Raf wt, [Q6IR]N-Ras

## CN(C)CCOc1ccc(-c2cc(-c3ccc4c(c3)CCC4=NO)c(-c3ccncc3)o2)cc1 [Example 4, 5-{5-[4-(2-Dimethylaminoethoxy)phenyl]-2-pyridin-4yl-furan-3-yl}indan-1-one oxime]
[1]
  IC50: 110 nM
[2]
  IC50: 7100 nM
[3]
  IC50: 500 nM
Human melanoma SKMEL3
  IC50: 1000 nM
Human melanoma A375P
  IC50: 81 nM
B-Raf
  Kd: 1 nM
Human melanoma SKMEL2
  IC50: 220 nM
